Like-named read-outs stand apart in the source and are kept apart here. Where a SMILES comes first, the peptide text is derived from it. Where no end group is shown, it is not given here. [ ]: non-standard residue; d: D form. Ala(indol-4-yl) = N[C@@H](Cc1cccc2[nH]ccc12)C(=O)O; 1Nal = N[C@@H](Cc1cccc2ccccc12)C(=O)O; NMeR = CN[C@@H](CCCNC(=N)N)C(=O)O; pGlu = O=C1CC[C@@H](C(=O)O)N1; Tle = CC(C)(C)[C@H](N)C(=O)O; dOrn = NCCC[C@@H](N)C(=O)O; Orn = NCCC[C@H](N)C(=O)O; Dab = NCC[C@H](N)C(=O)O
Legend:
hNTS2 = molecular target: T1, hNTS2 (Homo sapiens, UniProt O95665); assay: Radioligand competition binding with [3H]NT, membranes of CHO-K1 cells expressing hNTS2; conditions: for hNTS2 Selectivity: hNTS2 over hNTS1
T1 construct: expressed in transfected cells; host or cells: CHO-K1

hNTS1 = molecular target: T2, hNTS1 (Homo sapiens, UniProt P30989); assay: Radioligand competition binding with [3H]NT, membranes of CHO-K1 cells expressing hNTS1; conditions: for hNTS1 Selectivity: Table 2, hNTS1 over hNTS2
T2 construct: expressed in transfected cells; host or cells: CHO-K1
Procedure: CHO-K1 cells that had been stably transfected separately with the hNTS1 or hNTS2 genes were cultured in 150 mm (500 cm^2) Petri plates with 35 ml of Dulbecco's modified Eagle's medium containing 100 μM minimal essential medium nonessential amino acids (Life Technologies, Inc.) supplemented with 5% (v/v) FetalClone II bovine serum product (Hyclone Labs, Logan, Utah). […] The cellular pellet (in Tris-HCl buffer) was stored at […] until the radioligand binding was performed.
For use in binding assays, crude membrane preparations were prepared by centrifugation of the cellular pellet at 35,600×g for 10 min. The supernatant was decanted and discarded, and the cellular pellet was resuspended in 1 ml of Tris-HCl buffer followed by homogenization with a Brinkmann Polytron at setting 5.5 for 15 s. Centrifugation was repeated as above, the supernatant was decanted and discarded, and the cellular pellet was resuspended in 1 ml of Tris-HCl buffer followed by homogenization. Centrifugation was repeated a third time, the supernatant was discarded, and the final cellular pellet was suspended in 0.5-2.5 ml of Tris-HCl buffer. Protein concentration of the membrane preparation was estimated by the method of Lowry et al. using bovine serum albumin as a standard.
Incubation was at 20° C. for 40 min. The assay was routinely terminated by addition of ice-cold 0.9% NaCl (5×1.5 ml), followed by rapid filtration through a GF/B filter strip that had been pretreated with 0.2% or 2% polyethyleneimine. Details of binding assays have been described previously. […] Data were analyzed using the LIGAND program.

[1] = Table 2, read-out: hNTS2 Geometric Mean ∀ SEM (equilibrium dissociation constant Kd)
[2] = read-out: hNTS1 Geometric Mean ∀ SEM (equilibrium dissociation constant Kd)

T1 sequence (O95665 whole entry): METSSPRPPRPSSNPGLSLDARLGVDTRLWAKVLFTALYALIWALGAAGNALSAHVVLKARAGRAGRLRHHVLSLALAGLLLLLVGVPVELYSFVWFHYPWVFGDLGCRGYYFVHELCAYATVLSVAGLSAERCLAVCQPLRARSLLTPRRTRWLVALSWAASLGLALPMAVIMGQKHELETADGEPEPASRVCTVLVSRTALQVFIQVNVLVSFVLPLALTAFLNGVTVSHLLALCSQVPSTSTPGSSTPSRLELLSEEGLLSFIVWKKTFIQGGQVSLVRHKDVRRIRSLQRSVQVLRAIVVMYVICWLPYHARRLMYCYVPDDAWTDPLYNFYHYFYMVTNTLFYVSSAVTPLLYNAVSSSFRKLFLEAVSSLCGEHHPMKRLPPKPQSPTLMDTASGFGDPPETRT
T2 sequence (P30989 whole entry): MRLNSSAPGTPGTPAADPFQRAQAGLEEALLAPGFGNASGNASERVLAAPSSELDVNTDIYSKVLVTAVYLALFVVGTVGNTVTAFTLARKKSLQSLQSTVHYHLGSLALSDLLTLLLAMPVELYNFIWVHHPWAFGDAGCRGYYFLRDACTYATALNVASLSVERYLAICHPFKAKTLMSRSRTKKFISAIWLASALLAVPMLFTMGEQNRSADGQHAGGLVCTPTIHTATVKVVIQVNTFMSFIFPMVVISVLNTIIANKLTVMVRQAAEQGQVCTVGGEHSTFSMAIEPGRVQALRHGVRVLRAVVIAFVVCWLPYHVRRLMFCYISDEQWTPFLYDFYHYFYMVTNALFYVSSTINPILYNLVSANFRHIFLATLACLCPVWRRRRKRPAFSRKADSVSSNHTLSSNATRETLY

Compound	hNTS2 Selectivity (hNTS2; Table 2)	Kd (hNTS2; [1]) [nM]	hNTS1 Selectivity (hNTS1)	Kd (hNTS1; [2]) [nM]	Kd at hNTS2 in words (hNTS2; text b54)	binding / Kd at hNTS1 in words (hNTS1; text b54)	Kd (hNTS2) [nM]	Kd (hNTS1) [nM]
CN[C@@H](CCCNC(=N)N)C(=O)N[C@H](CCCN)C(=O)N1CCC[C@H]1C(=O)N[C@@H](Cc1cccc2[nH]ccc12)C(=O)N[C@H](C(=O)N[C@@H](CC(C)C)C(=O)O)C(C)(C)C [NT78, [N-methyl-Arg^8,D-Orn^9,L-neo-Trp^11,tert-Leu^12]NT(8-13)] (H-[NMeR][dOrn]P[Ala(indol-4-yl)][Tle]L-OH; C-terminus assumed)	3.4	380 ± 40	0.3	1300 ± 400	–	–	–	–
CC[C@H](C)[C@H](NC(=O)[C@H](Cc1ccc(O)cc1)NC(=O)[C@@H]1CCCN1C(=O)[C@H](CCN)NC(=O)[C@@H](N)CCN)C(=O)N[C@@H](CC(C)C)C(=O)O [NT31, [DAB^8,DAB^9]NT(8-13)] (H-[Dab][Dab]PYIL-OH; N-terminus and C-terminus assumed)	0.1	19.5 ± 0.7	9.1	2.1 ± 0.3	–	–	–	–
RRPYVL [NT10, [L-Val^12]NT(8-13)]	1.3	–	0.8	–	–	–	8.8 ± 0.4	11.3 ± 0.6
CC[C@H](C)[C@H](NC(=O)[C@H](Cc1ccc(O)cc1)NC(=O)[C@@H]1CCCN1C(=O)[C@@H](CCCN)NC(=O)[C@H](N)CCCN)C(=O)N[C@@H](CC(C)C)C(=O)O [NT28, [D-Orn^8,D-Orn^9]NT(8-13)]	0.3	1900 ± 100	3.2	600 ± 20	–	–	–	–
CC[C@H](C)[C@H](NC(=O)[C@H](Cc1cccc2ccccc12)NC(=O)[C@@H]1CCCN1C(=O)[C@H](CCCNC(=N)N)NC(=O)[C@H](CCCNC(=N)N)NC(=O)[C@@H]1CCCN1C(=O)[C@H](CCCCN)NC(=O)[C@H](CC(N)=O)NC(=O)[C@H](CCC(=O)O)NC(=O)[C@H](Cc1ccc(O)cc1)NC(=O)[C@H](CC(C)C)NC(=O)[C@@H]1CCC(=O)N1)C(=O)N[C@@H](CC(C)C)C(=O)O [NT62, [L-3,1-Nal^11]NT(1-13)] ([pGlu]LYENKPRRP[1Nal]IL-OH; C-terminus assumed)	0.6	14.2 ± 0.5	1.7	8.4 ± 0.3	–	–	–	–

Further compounds by falling Kd (hNTS2; [1]), results first:

hNTS2 Selectivity (hNTS2; Table 2)	Kd (hNTS2; [1]) [nM]	hNTS1 Selectivity (hNTS1)	Kd (hNTS1; [2]) [nM]	Kd at hNTS2 in words (hNTS2; text b54)	binding / Kd at hNTS1 in words (hNTS1; text b54)	Compound	Kd (hNTS2) [nM]	Kd (hNTS1) [nM]
–	1160 ± 20	–	–	micromolar Kd's	no detectable binding	CC[C@H](C)[C@H](NC(=O)[C@@H](Cc1ccc(O)cc1)NC(=O)[C@@H]1CCCN1C(=O)[C@H](CCCN)NC(=O)[C@@H](N)CCCNC(=N)N)C(=O)N[C@@H](CC(C)C)C(=O)O [NT36, [L-Orn^9,D-Tyr^11]NT(8-13)] (H-R[Orn]P[dY]IL-OH; N-terminus and C-terminus assumed)	–	–
2.1	660 ± 50	0.5	1400 ± 300	–	–	CN[C@@H](CCCNC(=N)N)C(=O)N[C@H](CCCN)C(=O)N1CCC[C@H]1C(=O)N[C@@H](Cc1c[nH]c2ccccc12)C(=O)N[C@H](C(=O)N[C@@H](CC(C)C)C(=O)O)C(C)(C)C [NT78T, [N-methyl-Arg^8,D-Orn^9,L-Trp^11,tert-Leu^12]NT(8-13)] (H-[NMeR][dOrn]PW[Tle]L-OH; N-terminus and C-terminus assumed)	–	–
0.2	24 ± 2	6.6	3.6 ± 0.2	–	–	CC[C@H](C)[C@H](NC(=O)[C@H](Cc1ccc(O)cc1)NC(=O)[C@@H]1CCCN1C(=O)[C@H](CCCN)NC(=O)[C@H](N)CCCN)C(=O)N[C@@H](CC(C)C)C(=O)O [NT27, [D-Orn^8,L-Orn^9]NT(8-13)]	–	–
0.3	5.9 ± 0.2	3.2	1.9 ± 0.2	–	–	CC[C@H](C)[C@H](NC(=O)[C@H](Cc1ccc(O)cc1)NC(=O)[C@@H]1CCCN1C(=O)[C@H](CCCNC(=N)N)NC(=O)[C@H](N)CCCN)C(=O)N[C@@H](CC(C)C)C(=O)O [NT22, [D-Orn^8]NT(8-13)] (H-[dOrn]RPYIL-OH; N-terminus and C-terminus assumed)	–	–
